Paper PMC11073699, “Odorant receptors for floral- and plant-derived volatiles in the yellow fever mosquito, Aedes aegypti (Diptera: Culicidae)” (PLOS ONE, 2024)
Values joined by “and” are separate entries in the source; they are usually repeats but may differ in a detail not shown here. Identical values can stand only once.

Key:
[1] = molecular target: T1, AaegOR71 (Aedes aegypti, UniProt A0A3S7SHD4); assay: Two-electrode voltage clamp of Xenopus laevis oocytes expressing AaegOR71/Orco (blends, unitary compounds, concentration-response); format: cell-based; settings: for Raw Data (Response in nA) Oocyte 1 / Raw Data (Response in nA) Oocyte 2 / Raw Data (Response in nA) Oocyte 3 / Raw Data (Response in nA) Oocyte 4 / Raw Data (Response in nA) Oocyte 5 / Raw Data (Response in nA) Oocyte 6 / Raw Data (Response in nA) Oocyte 7 / Raw Data (Response in nA) Oocyte 8: Indoles 2 unitary compounds; for Raw Data (Response in nA): concentration-response, Oocytes 1-8 individually
T1 sequence (A0A3S7SHD4 1-415): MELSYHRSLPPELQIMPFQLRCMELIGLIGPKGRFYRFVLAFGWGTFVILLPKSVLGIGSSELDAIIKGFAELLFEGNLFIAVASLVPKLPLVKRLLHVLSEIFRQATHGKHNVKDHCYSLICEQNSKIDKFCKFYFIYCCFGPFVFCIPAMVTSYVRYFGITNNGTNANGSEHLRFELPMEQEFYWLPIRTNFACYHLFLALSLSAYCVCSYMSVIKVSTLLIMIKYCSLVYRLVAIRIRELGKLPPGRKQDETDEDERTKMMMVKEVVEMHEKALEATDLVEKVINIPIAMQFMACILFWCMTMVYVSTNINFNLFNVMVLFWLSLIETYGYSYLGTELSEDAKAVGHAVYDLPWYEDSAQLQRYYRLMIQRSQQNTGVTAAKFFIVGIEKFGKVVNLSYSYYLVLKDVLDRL
T1 sequence (Q178U6 1-478 partner): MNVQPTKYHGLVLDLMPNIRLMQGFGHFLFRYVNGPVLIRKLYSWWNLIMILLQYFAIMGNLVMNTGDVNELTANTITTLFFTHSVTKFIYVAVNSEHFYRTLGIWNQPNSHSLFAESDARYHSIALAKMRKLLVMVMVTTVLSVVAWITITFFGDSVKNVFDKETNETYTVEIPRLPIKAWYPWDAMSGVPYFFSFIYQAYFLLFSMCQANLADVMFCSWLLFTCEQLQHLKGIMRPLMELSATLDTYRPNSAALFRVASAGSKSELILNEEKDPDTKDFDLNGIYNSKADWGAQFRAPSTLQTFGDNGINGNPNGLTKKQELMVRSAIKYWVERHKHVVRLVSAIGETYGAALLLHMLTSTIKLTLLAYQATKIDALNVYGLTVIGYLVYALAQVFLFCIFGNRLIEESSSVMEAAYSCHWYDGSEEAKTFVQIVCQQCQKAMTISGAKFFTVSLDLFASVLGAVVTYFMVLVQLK
Source text: (§1) The coding regions of ten AaegOR genes of interest (S3 File) and AaegOrco were synthesized by Twist Bioscience (San Francisco, CA, USA) and cloned into the pENTR plasmid. The Gateway LR directional cloning system (Invitrogen Corp., Carlsbad, CA, USA) was utilized to subclone AaegOR coding regions into the pSP64t-RFA oocyte expression plasmid. Plasmids were purified using the GeneJet Plasmid Miniprep Kit (ThermoFisher Scientific, Waltham, MA, USA). Purified plasmids were sequenced in both directions to confirm coding regions.
(§2) Chemical compounds (S6 File) used in the deorphanization of AaegORs were purchased from Acros Organics (Morris, NJ, USA), Alfa Aesar (Ward Hill, MA, USA), and ThermoFisher Scientific (Waltham, MA, USA) at the highest purity available. Compounds were stored as 1M stocks in 100% DMSO. Serial dilutions of each compound were prepared in 10% DMSO and blended by chemical class.
(§3) pSP64t-RFA: AaegOR clones were linearized using Xbal, and cRNAs were synthesized using the mMESSAGE mMACHINE ® SP6 kit (Life Technologies, Carlsbad, CA, USA). Xenopus laevis stage V-VII oocytes purchased from Xenopus1 (Dexter, MI, USA) were stored at 18°C in Incubation medium (ND96 96 with 5% dialyzed horse serum, 50μg/mL gentamycin, 100μg/mL streptomycin, 100μg/mL penicillin, and 550μg/mL sodium pyruvate). 30nL of cRNA was injected into multiple oocytes using a microinjection syringe pump (World Precision Instruments, Sarasota, FL, USA) maintained at 18°C for 48–72 hrs. Odorant blends were perfused across individual oocytes for 10–15 seconds, held at a resting membrane potential of -80 mV using an OC-725C oocyte clamp (Warner Instruments, LLC, Hamden, CT, USA). Induced currents were measured indirectly using the two-electrode voltage clamp technique (TEVC). Following each stimulus, currents were allowed to return to baseline before further stimulation. Data was captured using the Digidata 1550 B digitizer and PClamp10 software (Molecular Devices, San Jose, CA, USA). Concentration-response curves were generated by perfusing unitary odorants over oocytes at increasing concentrations from [10^-3M] to [10^-9M]. Data were analyzed using GraphPad Prism 8 (GraphPad Software Inc., La Jolla, CA, USA). At least two biological replicates were conducted at each concentration and for each compound. Data for at least seven oocytes responding to each compound was analyzed (S7 File).

[2] = molecular target: T2, AaegOR6 (Aedes aegypti, UniProt A0A1S4G757); assay: Two-electrode voltage clamp of Xenopus laevis oocytes expressing AaegOR6/Orco (blends, unitary compounds, concentration-response); format: cell-based; settings: for Raw data (Responses in nA) Oocyte 1 / Raw data (Responses in nA) Oocyte 2 / Raw data (Responses in nA) Oocyte 3 / Raw data (Responses in nA) Oocyte 4 / Raw data (Responses in nA) Oocyte 5 / Raw data (Responses in nA) Oocyte 6 / Raw data (Responses in nA) Oocyte 7 / Raw data (Responses in nA) Oocyte 8: Indoles 2 unitary compounds
T2 sequence (A0A1S4G757 1-398): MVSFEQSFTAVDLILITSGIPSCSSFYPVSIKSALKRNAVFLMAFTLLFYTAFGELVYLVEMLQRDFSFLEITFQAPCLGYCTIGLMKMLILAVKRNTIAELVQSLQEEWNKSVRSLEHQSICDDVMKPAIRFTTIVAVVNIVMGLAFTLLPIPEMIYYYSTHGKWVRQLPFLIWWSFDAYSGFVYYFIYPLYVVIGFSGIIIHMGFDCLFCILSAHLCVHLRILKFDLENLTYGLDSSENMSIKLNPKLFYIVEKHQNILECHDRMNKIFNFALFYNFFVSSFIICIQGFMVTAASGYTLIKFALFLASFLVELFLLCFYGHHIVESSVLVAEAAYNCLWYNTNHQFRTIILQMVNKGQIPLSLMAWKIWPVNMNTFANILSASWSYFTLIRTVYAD
T2 sequence (Q178U6 1-478 partner): T1 sequence (Q178U6 1-478 partner)
Source text: as §1, §2, §3

Structure (SMILES) | Raw Data (Response in nA) Oocyte 1 [1] [nA] | Raw Data (Response in nA) Oocyte 2 [1] [nA] | Raw Data (Response in nA) Oocyte 3 [1] [nA] | Raw Data (Response in nA) Oocyte 4 [1] [nA] | Raw Data (Response in nA) Oocyte 5 [1] [nA] | Raw Data (Response in nA) Oocyte 6 [1] [nA] | Raw Data (Response in nA) Oocyte 7 [1] [nA] | Raw Data (Response in nA) Oocyte 8 [1] [nA] | Raw data (Responses in nA) Oocyte 1 [2] [nA] | Raw data (Responses in nA) Oocyte 2 [2] [nA] | Raw data (Responses in nA) Oocyte 3 [2] [nA] | Raw data (Responses in nA) Oocyte 4 [2] [nA] | Raw data (Responses in nA) Oocyte 5 [2] [nA] | Raw data (Responses in nA) Oocyte 6 [2] [nA] | Raw data (Responses in nA) Oocyte 7 [2] [nA] | Raw data (Responses in nA) Oocyte 8 [2] [nA] | other results
O=C(O)Cc1c[nH]c2ccccc12 [1H-Indole-3-acetic acid] | 0 | 20 | 0 | 15 | 20 | 60 | 15 | 60 | 10.0 | 10.0 | 10.0 | 0.0 | 10.0 | 0.0 | 0.0 | 0.0 | –
OCc1c[nH]c2ccccc12 [3-Indolemethanol] | 240 | 0 | 0 | 0 | 0 | 0 | 0 | 0 | 0.0 | 0.0 | 10.0 | 0.0 | 0.0 | 0.0 | 0.0 | 0.0 | –
Oc1cccc2[nH]ccc12 [4-Hydroxyindole] | 20 | 30 | 0 | 30 | 0 | 30 | 30 | 10 | 0.0 | 0.0 | 5.0 | 0.0 | 0.0 | 0.0 | 0.0 | 0.0 | –
O=C1CCOc2ccccc21 [4-chromanone, 4-Chromanone] | 0 | 310 | 15 | 140 | 15 | 60 | 30 | 20 | 70.0 | 50.0 | 90.0 | 170.0 | 70.0 | 650.0 | 510.0 | 510.0 | EC50 ([2]; AaegOR6/Orco expressing oocytes, TEVC, concentration-response of normalized current): ~6.84 µM and 6.84 µM
O=Cc1ccnc2ccccc12 [4-quinolinecarboxaldehyde, 4-Quinolinecarboxaldehyde] | 1070 | 2930 | 590 | 1710 | 390 | 930 | 330 | 410 | 0.0 | 0.0 | 0.0 | 0.0 | 0.0 | 0.0 | 0.0 | 0.0 | EC50 ([1]; AaegOR71/Orco expressing oocytes, TEVC, concentration-response of normalized current): ~0.96 µM and 0.96 µM; Raw Data (Response in nA) ([1]; first series, 1e-9 M): 10 nA (2×) and 0 nA (5×) and 30 nA; Raw Data (Response in nA) ([1]; first series, 5e-9 M): 30 nA (2×) and 10 nA (2×) and 20 nA and 0 nA and 5 nA (2×); Raw Data (Response in nA) ([1]; first series, 1e-8 M): 60 nA (2×) and 15 nA and 30 nA and 25 nA and 5 nA and 10 nA (2×); Raw Data (Response in nA) ([1]; first series, 5e-8 M): 140 nA and 35 nA and 70 nA and 25 nA (2×) and 110 nA and 10 nA and 30 nA; Raw Data (Response in nA) ([1]; first series, 1e-7 M): 200 nA and 50 nA (3×) and 120 nA and 30 nA (2×) and 190 nA; Raw Data (Response in nA) ([1]; first series, 5e-7 M): 500 nA and 150 nA and 320 nA and 90 nA (2×) and 380 nA and 100 nA and 120 nA; Raw Data (Response in nA) ([1]; first series, 1e-6 M): 620 nA and 180 nA and 410 nA and 125 nA and 470 nA and 140 nA and 150 nA (2×); Raw Data (Response in nA) ([1]; second series (unlabelled), 5e-9 M): 8.84 nA and 16 nA and 25 nA and 15 nA (2×) and 5 nA (2×) and 0 nA; Raw Data (Response in nA) ([1]; second series (unlabelled), 1e-8 M): 20 nA (3×) and 40 nA (2×) and 60 nA and 150 nA and 30 nA; Raw Data (Response in nA) ([1]; second series (unlabelled), 5e-8 M): 40 nA (4×) and 80 nA and 100 nA and 160 nA and 20 nA; Raw Data (Response in nA) ([1]; second series (unlabelled), 1e-7 M): 60 nA (3×) and 120 nA (2×) and 190 nA and 40 nA and 50 nA; Raw Data (Response in nA) ([1]; second series (unlabelled), 5e-7 M): 140 nA and 240 nA and 260 nA and 110 nA and 80 nA (2×) and 300 nA and 50 nA; Raw Data (Response in nA) ([1]; second series (unlabelled), 1e-6 M): 180 nA and 290 nA (2×) and 140 nA
Nc1cccc2cnccc12 [5-Aminoisoquinoline] | 130 | 200 | 40 | 40 | 0 | 10 | 0 | 10 | 0.0 | 0.0 | 0.0 | 0.0 | 0.0 | 0.0 | 0.0 | 0.0 | –
